Data reported in US20130090371A1, “METHODS AND COMPOSITIONS FOR INHIBITION OF BETA2-ADRENERGIC RECEPTOR DEGRADATION” (PRESIDENT AND FELLOWS OF HARVARD COLLEGE, priority 2010, published 2013).
d = 2'-deoxy (DNA)

What was measured:
cell surface β2AR [1] = assay: Flowcytometry of cell surface β2AR in 293.β2AR^WT cells; type: cell-based, human
Protocol: (§1) Cell Culture, Transfection and Drug Treatments. […] Transfection of DNA into 293T cells was using FuGene 6 reagent (Roche) according to manufacturer's instruction. […] FDPS-specific siRNA (sense [NT], antisense [NT]) was from Sigma-Aldrich and the non-targeting Scrambled siRNA was from Thermo Scientific. […] Cells were washed with PBS and incubated with diluted TrypLE Express Enzyme (Invitrogen) (1:10 dilutio in PBS) for exactly 1 min at room temperature followed by adding regular medium immediately. […] Then cells were washed again and passed through cell strainers to remove cell clumps before being sorted on a FACS Aria multicolor high speed sorter (Becton Dickinson). During FACS analysis, the population of single cell was gated to measured FITC (green) signal. Background of auto-fluorescence was identified by plotting FITC with PE (red) or SSC (side scatter) signal. FITC-positive cells were collected in calcium and magnesium-free PBS with 20% FBS. Collected cells were cultured for repeating FACS sorting. […] The population of PI-negative single cell was gated to measured FITC signal.

cellular cholesterol = assay: Cellular cholesterol measurement in 293.β2AR* cells; type: cell-based, human
Protocol: Error bars represented the standard deviations of replicates.
Cellular cholesterol measurement. 1×10^6 cells were cultured in each well of 6-well plates in DMEM containing 10% FBS for 3 d until fully confluent. Then drug treatments were performed in either DMEM containing 10% FBS or Opti-MEM without serum in duplicates. Cells were transferred to microcentrifuge tubes, washed twice with ice-cold PBS. Total lipids were extracted by resuspending and lysing cells in 300 μL of Chloroform: Isopropanol: Triton X-100 (7:11:0.1). The organic phase was collected after centrifugation at 12,000 rpm for 10 min and then evaporated at 50° C. for 3-4 h. Lipids were resuspend in 200 μL of Cholesterol Reaction buffer included in a commercial cholesterol measurement kit (Invitrogen) by votexing. Cholesterol was measured by the cholesterol oxidase method according to the manufacturer's directions. 2 or 4 measurements were taken for each replicate sample.

cell surface β2AR [2] = assay: Flowcytometry of cell surface β2AR in 293.β2AR* (recycle-deficient FLAG-β2AR, β2ARt) cells; type: cell-based, human
Protocol: as §1

[3] = system: human airway smooth muscle cells; assay: Optical Magnetic Twisting Cytometry (elastic modulus) of HASM cells; conditions: for decrease of stiffness compared to baseline: 1 mM isoproterenol, measured over 15 min
CaMKK2 = assay: qRT-PCR of CaMKK2 mRNA in primary HASM cells; type: cell-based, human; conditions: 50 nM siRNA; three days after transfection
β2AR = assay: Immunoblot of β2AR protein in human airway smooth muscle (HASM) cells; conditions: 20 μM isoproterenol for 2 d; vs non targeting shRNA
Protocol: Error bars represented the standard deviations; Student t-test * p<0.05, n=2. […] Indirect Immunofluorescence staining of β2AR and phase contract images are shown.
Three days after the inhibitor treatment cell lysates were collected and analyzed by immunoblotting. Three repeats were done with similar results.
Immunoblot analysis. 48 h post DNA transfection, cells were wash with PBS and lysed with NP-40 lysing buffer (50 mM Tris-HCl pH7.5, 150 mM NaCl, 0.5% Nonidet P-40) containing protease inhibitor cocktail (Roche). Protein samples were separated on NuPAGE 10% Bis-Tris gels (Invitrogen) and transferred to nitrocellulose membranes (Bio-Rad). Immunoblot signals were developed using SuperSignal West Pico Chemiluminescent Substrate (Pierce, Rockford, Ill., USA) and quantified by a Luminescence Imager or exposed to X-ray films.

FDPS = assay: Real-time RT-PCR of FDPS mRNA in 293β2AR* cells; type: cell-based, human; conditions: normalized to β-Actin
Protocol: FIGS. 4A-4D show FDPS regulates the amount of Cell Surface β2AR in 293βAR* cells. […]. […] Cells were transduced with Lentivirus expressing FDPS-specific shRNA or empty vector, or transfected with FDPS-specific siRNA or non-targeting Scrambled (SCR) siRNA. The RNA levels were determined by real time RT-PCR and normalized to that of β-Actin. Error bars represented the standard deviations of replicates. Statistic analysis was using student's t-test. […]. MFI: Mean fluorescence intensity.
Real-Time RT-PCR. Total RNA was isolated by using TRIzol (Invitrogen) and further cleaned up by using RNeasy Mini kit (Qiagen) with DNase I digestion. cDNA was synthesized by using oligo-dT primers and SuperScript III (Invitrogen). Real-time PCR was performed on ABI Prism 7300 with SYBR Green (Qiagene). The FDPS was amplified with primers FDPS-1F (5′-TGACCGGCAAAATTGGCACTGACAT-3′) (SEQ ID NO: 20) and FDPS-1R (5′-CCTTCACCCGGGCCACTTTCTCA-3′) (SEQ ID NO: 21). […]. The β-Actin control was amplified with primers (Forward, 5′-AAG GCC AAC CGC GAG AAG-3′ (SEQ ID NO: 28) and Reverse, 5′-GGC GTA CAG GGA TAG CAC-3′ (SEQ ID NO: 29)).

β2ARt = target: T1, β2ARt (Homo sapiens, UniProt P07550); assay: Immunoblot of agonist-induced β2AR degradation in 293β2AR* / β2ARt cells; type: cell-based; conditions: after 3 hours of agonist induction (10 μM isoproterenol); vs empty vector
T1 construct: a distally truncated form (after residue 385) of β2AR (β2ARt); expressed in transfected cells; host or cells: HEK293 (293.β2AR*)
Protocol: β2AR ubiquitination and degradation assays. Cells expressing […] or β2ARt were subjected to 10 μM ISO (Sigma) stimulation, lysed in 0.5% NP-40 lysis buffer and immunoblotted with anti-FLAG-HRP (Sigma). For β2AR ubiquitination, β2ARt or wt-β2AR expressing cells were first incubated with 10 μM alprenolol antagonist (Sigma) for 15 min (to reduce constitutive background ubiquitination), stimulated with 10 μM ISO and lysed in buffer supplemented with 10 mM N-ethylmaleimide (NEM; Sigma) to inhibit deubiquitinase activity. Anti-FLAG EZview beads (Sigma) used for the IP were subjected to three 10 min washes with lysis buffer and resuspended in 50 μl 2βLDS sample buffer (Invitrogen) containing 10% β-mercaptoethanol (Sigma) and analyzed by immunoblotting.

[4] = target: T2, NEDD4 E3 ubiquitin ligase (UniProt P46934-4 1-900, limits assumed); assay: co-immunoprecipitation and immunoblot (FIG. 8B)
T2 construct: also called ubiquitin ligase NEDD4
T2 sequence (looked up): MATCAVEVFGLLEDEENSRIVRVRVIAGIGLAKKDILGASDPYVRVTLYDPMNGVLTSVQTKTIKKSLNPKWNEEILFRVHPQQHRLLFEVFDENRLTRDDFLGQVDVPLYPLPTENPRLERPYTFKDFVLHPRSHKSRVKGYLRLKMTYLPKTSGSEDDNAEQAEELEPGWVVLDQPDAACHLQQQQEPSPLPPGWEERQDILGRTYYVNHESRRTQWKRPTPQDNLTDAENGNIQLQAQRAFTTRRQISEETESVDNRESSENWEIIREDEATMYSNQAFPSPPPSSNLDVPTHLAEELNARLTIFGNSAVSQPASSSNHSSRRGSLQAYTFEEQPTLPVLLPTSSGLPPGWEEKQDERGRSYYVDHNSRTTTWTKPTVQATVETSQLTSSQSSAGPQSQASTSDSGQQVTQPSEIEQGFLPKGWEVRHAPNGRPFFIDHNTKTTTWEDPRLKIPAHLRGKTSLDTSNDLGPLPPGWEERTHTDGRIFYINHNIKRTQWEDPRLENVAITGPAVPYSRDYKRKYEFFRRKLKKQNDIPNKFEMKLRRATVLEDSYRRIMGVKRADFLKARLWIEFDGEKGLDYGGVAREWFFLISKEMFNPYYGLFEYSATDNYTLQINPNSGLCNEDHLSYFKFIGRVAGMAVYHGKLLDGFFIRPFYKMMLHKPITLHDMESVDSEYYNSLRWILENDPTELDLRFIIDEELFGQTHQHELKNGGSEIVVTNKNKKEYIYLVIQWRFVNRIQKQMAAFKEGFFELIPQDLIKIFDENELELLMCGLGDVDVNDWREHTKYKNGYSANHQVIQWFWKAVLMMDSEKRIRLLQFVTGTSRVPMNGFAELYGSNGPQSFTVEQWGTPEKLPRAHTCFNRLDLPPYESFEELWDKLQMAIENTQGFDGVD

With `NCCCC(O)(P(=O)([O-])O)P(=O)(O)O.[Na+]` [alendronate, (4-amino-1-hydroxybutylidene)bisphosphonic acid monosodium salt] the “amount of cell surface β2AR” value (cell surface β2AR [1]; 50 μM alendronate alone for 1 d) was “increased the amount of cell surface β2AR”, the “cell surface β2AR levels before and after agonist induction” value (cell surface β2AR [1]; 50 μM for 1 d, then 10 μM isoproterenol 1 h) was “increased the cell surface β2AR levels both before and after agonist induction” and the “effect on cellular cholesterol” value (cellular cholesterol; 50 μM ALN or 100 μg/mL pravastatin for 1 d, serum containing medium) was “neither alendronate nor pravastatin could significantly lower the cellular cholesterol”. For the same molecule, the “effect on cellular cholesterol” value (cellular cholesterol; 50 μM for 1 d, serum-free medium) was “not sufficient to lower cellular cholesterol”, the “cell surface β2AR levels after agonist induction” value (cell surface β2AR [2]; 50 or 500 μM for 1 d, then 10 μM isoproterenol 3 h) was “dose dependent increase of the cell surface β2AR levels” and the “surface β2AR levels prior and post agonist induction” value (cell surface β2AR [2]; treatment for 2 days, data not shown) was “increase the surface β2AR levels”.

`CC(C)CCC[C@@H](C)[C@H]1CC[C@H]2[C@@H]3CC=C4C[C@@H](O)CC[C@]4(C)[C@H]3CC[C@]12C` [cholesterol] was tested, and the “effect on FDPS blockade of β2AR down-regulation” value (cell surface β2AR [1]; cholesterol supplementation (FIG. 6A)) was “reverses the effects of FDPS blockade”.

In the case of `CC(C)NCC(O)c1ccc(O)c(O)c1` (stereo not shown) [isoproterenol], the “decrease of stiffness compared to baseline” value ([3]; FDPS knockdown (sample) cells) is reported as about 15% and the “decrease of stiffness compared to baseline” value ([3]; control cells) is reported as about 40%.

With `CC[C@H](C)C(=O)O[C@H]1C[C@H](O)C=C2C=C[C@H](C)[C@H](CC[C@@H](O)C[C@@H](O)CC(=O)O)[C@H]21` [pravastatin] the “effect on amount of cell surface β2AR” value (cell surface β2AR [1]; 100 μg/mL for 1 d) was “no significant effect”, the cellular cholesterol lowering (cellular cholesterol; 1 μg/mL for 1 d, serum-free medium) was 19.9% and the “effect on amount of cell surface β2AR” value (cell surface β2AR [2]; 100 μg/mL for 1 d) was “no significant effect”.

For “AA496068 EST shRNA: shRNA TCTGCATTTCCTGTAATTTTGCATGC (SEQ ID NO: 2) targeting EST AA496068 upstream of latrophilin 2”, the “cell surface β2AR, mean fluorescence intensity” value (cell surface β2AR [2]; β2ARt-expressing 293 cells, vehicle or ISO 16 h, vs non-targeting shRNA) was “An increase in the mean fluorescence intensity values”.

For “ARRDC3-specific shRNA: shRNA sequence CCACAGACACCACTCGCTACCTCATT (SEQ ID NO: 24)”, the “higher level of cell surface receptor after agonist stimulation” value (cell surface β2AR [2]; β2ARt cells, vs non-targeting shRNA) was over 20%.

With “CaMKK2 siRNA #1: 5′ GCUCCUAUGGUGUCGUCAAdTdT (SEQ ID NO: 32), MISSION siRNA from Sigma (GCUCCUAUGGUGUCGUCAATT; further chemistry not given here)” the “knockdown of CaMKK2 expression” value (CaMKK2) was “about 90%”.

With “CaMKK2 siRNA #2: 5′ UUGACGACACCAUAGGAGCdTdT (SEQ ID NO: 33), MISSION siRNA from Sigma (UUGACGACACCAUAGGAGCTT; further chemistry not given here)” the “knockdown of CaMKK2 expression” value (CaMKK2) was “about 90%”.

For “FDPS-specific shRNA: lentiviral shRNA clone, hairpin sequence 5′-AGCGGAGAAAGTGACCTAGAGATTG-3′ (SEQ ID NO: 20) (AGCGGAGAAAGTGACCTAGAGATTG)”, the “total amount of β2AR” value (β2AR) was “upregulation of β2AR”, the “down regulation of FDPS mRNA level (knockdown efficiency)” value (FDPS) was “about 10%” and the “amount of β2AR by immunoblot” value (β2ARt) was “increased amount of β2AR”. The “baseline elastic modulus (t=0)” value ([3]; FDPS knockdown cells vs control cells) was “approximately two times lower”.

With “FDPS-specific siRNA: sense 5′-cca ugu aca ugg cag gaa u(dT)(dT)-3′, antisense 5′-auu ccu gcc aug uac aug g(dT)(dT)-3′, from Sigma-Aldrich (sense CCAUGUACAUGGCAGGAAU; antisense AUUCCUGCCAUGUACAUGG; RNA, 3' dTdT, backbone not given here)” the “increase in cell surface β2AR” value (cell surface β2AR [2]; both prior and post agonist induction (10 μM isoproterenol 1 or 3 h), vs non-targeting control siRNA) was “about 2 fold” and the “down regulation of FDPS mRNA level (knockdown efficiency)” value (FDPS) was “about 80%”.

In the case of Methyl-beta-cyclodextrin [MbCD], the cellular cholesterol lowering (cellular cholesterol; 2 mM for 1 h, medium containing 10% FBS) is reported as 35.3% and the “cell surface β2AR post agonist induction” value (cell surface β2AR [2]; 1 or 2 mM for 1 h, then 10 μM isoproterenol 1 h) is reported as “increased amount of cell surface β2AR post agonist induction”.

B1: ARRDC3ΔΔPPXY (double PPXY motif mutant of ARRDC3) (other, human, UniProt Q96B67 1-414, looked up)
chain: MVLGKVKSLTISFDCLNDSNVPVYSSGDTVSGRVNLEVTGEIRVKSLKIHARGHAKVRWTESRNAGSNTAYTQNYTEEVEYFNHKDILIGHERDDDNSEEGFHTIHSGRHEYAFSFELPQTPLATSFEGRHGSVRYWVKAELHRPWLLPVKLKKEFTVFEHIDINTPSLLSPQAGTKEKTLCCWFCTSGPISLSAKIERKGYTPGESIQIFAEIENCSSRMVVPKAAIYQTQAFYAKGKMKEVKQLVANLRGESLSSGKTETWNGKLLKIPPVSPSILDCSIIRVEYSLMVYVDIPGAMDLFLNLPLVIGTIPLHPFGSRTSSVSSQCSMNMNWLSLSLPERPEAAASAAEVVTEEQRRNNLAPVSACDDFERALQGPLFAYIQEFRFLPAALASEIDPNPDQSADDRPSCPSR
notes: also called double PPXY ARRDC3 mutant; double PPXY mutant
B1: no binding [4].
